The text below walks through data of ChEMBL document CHEMBL2074246, “Distinct groups of multidrug resistance modulating agents are distinguished by competition of P-glycoprotein-specific antibodies” (Biochem Biophys Res Commun, 2004).

*1 amine or outer side, *2 acyl side, *3 side chain or, on linkers, in order; H or OH if unused. Where a SMILES comes first, the peptide text is derived from it. Bridges are numbered along the chain shown (N, C = ends). Roman numbers before positions name the chains, in order. [ ]: non-standard residue; d: D form. Actinocin(9to1) = Cc1c2oc3c(C)ccc(C(=O)[*:1])c3nc-2c(C(=O)[*:2])c(N)c1=O; NMeV = CN[C@H](C(=O)O)C(C)C; Sar = CNCC(=O)O

Holding throughout (type): functional, cell-based
Data set [1] deals with T1, ATP-dependent translocase ABCB1 (Homo sapiens, UniProt P08183). Description: TP_TRANSPORTER: increase in Calcein-AM intracellular accumulation (Calcein-AM: 0.5 uM, Rapamycin: 20 uM) in MDR1-expressing NIH-3T3 cells. The settings on record: mouse, nih3t3, 20 µM.
T1 sequence (P08183 whole entry): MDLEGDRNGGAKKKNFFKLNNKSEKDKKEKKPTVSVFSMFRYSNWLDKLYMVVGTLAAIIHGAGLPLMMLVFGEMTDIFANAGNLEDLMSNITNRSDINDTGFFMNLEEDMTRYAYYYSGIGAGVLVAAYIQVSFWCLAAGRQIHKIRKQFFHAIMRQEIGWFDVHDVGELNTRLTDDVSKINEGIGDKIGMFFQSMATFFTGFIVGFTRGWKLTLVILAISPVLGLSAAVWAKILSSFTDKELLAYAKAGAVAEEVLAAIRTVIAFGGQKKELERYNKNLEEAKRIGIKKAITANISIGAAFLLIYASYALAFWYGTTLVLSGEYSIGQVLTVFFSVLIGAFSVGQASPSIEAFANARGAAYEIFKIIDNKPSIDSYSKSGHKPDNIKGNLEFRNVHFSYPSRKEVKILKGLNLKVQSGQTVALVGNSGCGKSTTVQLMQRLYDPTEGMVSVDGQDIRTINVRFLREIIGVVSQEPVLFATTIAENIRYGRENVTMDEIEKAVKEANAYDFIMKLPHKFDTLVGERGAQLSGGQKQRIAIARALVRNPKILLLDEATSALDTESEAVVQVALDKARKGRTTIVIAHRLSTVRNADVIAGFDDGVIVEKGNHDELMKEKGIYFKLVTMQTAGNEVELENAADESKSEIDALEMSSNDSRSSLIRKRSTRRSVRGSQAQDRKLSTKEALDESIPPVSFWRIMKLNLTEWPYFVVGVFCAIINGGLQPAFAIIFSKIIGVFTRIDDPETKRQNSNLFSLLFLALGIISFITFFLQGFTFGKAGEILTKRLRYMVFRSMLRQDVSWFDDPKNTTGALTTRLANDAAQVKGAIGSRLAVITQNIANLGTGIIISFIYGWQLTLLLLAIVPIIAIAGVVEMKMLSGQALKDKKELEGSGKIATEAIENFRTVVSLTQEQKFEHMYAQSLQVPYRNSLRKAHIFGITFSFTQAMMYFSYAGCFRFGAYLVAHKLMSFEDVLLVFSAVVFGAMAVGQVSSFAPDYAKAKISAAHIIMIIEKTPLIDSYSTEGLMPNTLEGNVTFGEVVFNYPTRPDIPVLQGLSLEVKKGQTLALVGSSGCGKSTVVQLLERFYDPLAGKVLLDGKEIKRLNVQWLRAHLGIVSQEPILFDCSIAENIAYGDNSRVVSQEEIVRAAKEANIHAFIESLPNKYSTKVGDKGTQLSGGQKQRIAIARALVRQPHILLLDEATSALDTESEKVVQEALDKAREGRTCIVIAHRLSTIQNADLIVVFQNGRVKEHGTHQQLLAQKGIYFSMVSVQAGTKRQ
The target in data set [2] is T1, ATP-dependent translocase ABCB1. Nature of the data set: TP_TRANSPORTER: increase in Calcein-AM intracellular accumulation (Calcein-AM: 0.5 uM, Tetracaine: 320 uM) in MDR1-expressing NIH-3T3 cells. Conditions: mouse, nih3t3, 320 µM.
Data set [3] shares this target. Description: TP_TRANSPORTER: increase in Calcein-AM intracellular accumulation (Calcein-AM: 0.5 uM, Quinine: 20 uM) in MDR1-expressing NIH-3T3 cells. The settings on record: mouse, nih3t3, 20 µM.
The target is the same in data set [4]. Nature of the data set: TP_TRANSPORTER: increase in Calcein-AM intracellular accumulation (Calcein-AM: 0.5 uM, Actinomycin D: 40 uM) in MDR1-expressing NIH-3T3 cells. Conditions: mouse, nih3t3, 40 µM.
For data set [5] the target is unchanged. Description: TP_TRANSPORTER: increase in Calcein-AM intracellular accumulation (Calcein-AM: 0.5 uM, Imipramine: 20 uM) in MDR1-expressing NIH-3T3 cells. The settings on record: mouse, nih3t3, 20 µM.
For data set [6] the target is unchanged. Nature of the data set: TP_TRANSPORTER: increase in Calcein-AM intracellular accumulation (Calcein-AM: 0.5 uM, Tween 20: 1.4x10-3a%) in MDR1-expressing NIH-3T3 cells. Conditions: mouse, nih3t3.
Data set [7] has the same target. Nature of the data set: TP_TRANSPORTER: increase in Calcein-AM intracellular accumulation (Calcein-AM: 0.5 uM, Lidocaine: 20 uM) in MDR1-expressing NIH-3T3 cells. Conditions: mouse, nih3t3, 20 µM.
Data set [8] has the same target. Nature of the data set: TP_TRANSPORTER: increase in Calcein-AM intracellular accumulation (Calcein-AM: 0.5uM, Nifedipine:125uM) in MDR1-expressing NIH-3T3 cells. The settings on record: mouse, nih3t3, 125 µM.
The target is the same in data set [9]. Nature of the data set: TP_TRANSPORTER: increase in Calcein-AM intracellular accumulation (Calcein-AM: 0.5 uM, Progesterone: 10 uM) in MDR1-expressing NIH-3T3 cells. The settings on record: mouse, nih3t3, 10 µM.
The target is the same in data set [10]. Description: TP_TRANSPORTER: increase in Calcein-AM intracellular accumulation (Calcein-AM: 0.5 uM, Haloperidol: 80 uM) in MDR1-expressing NIH-3T3 cells. Conditions: mouse, nih3t3, 80 µM.
Data set [11] has the same target. Nature of the data set: TP_TRANSPORTER: increase in Calcein-AM intracellular accumulation (Calcein-AM: 0.5 uM, Colchicine: 100 uM) in MDR1-expressing NIH-3T3 cells. The settings on record: mouse, nih3t3, 100 µM.
Data set [12] shares this target. Description: TP_TRANSPORTER: increase in Calcein-AM intracellular accumulation (Calcein-AM: 0.5 uM, Valinomycin: 10 uM) in MDR1-expressing NIH-3T3 cells. The settings on record: mouse, nih3t3, 10 µM.
Data set [13] shares this target. Nature of the data set: TP_TRANSPORTER: increase in Calcein-AM intracellular accumulation (Calcein-AM: 0.5 uM, o-Amsacrine: 5 uM) in MDR1-expressing NIH-3T3 cells. Conditions: mouse, nih3t3, 5 µM.
Data set [14] shares this target. Nature of the data set: TP_TRANSPORTER: increase in Calcein-AM intracellular accumulation (Calcein-AM: 0.5 uM, Ivermectin: 20 uM) in MDR1-expressing NIH-3T3 cells. Conditions: mouse, nih3t3, 20 µM.
The target is the same in data set [15]. Nature of the data set: TP_TRANSPORTER: increase in Calcein-AM intracellular accumulation (Calcein-AM: 0.5 uM, Prednisone: 200 uM) in MDR1-expressing NIH-3T3 cells. Conditions: mouse, nih3t3, 200 µM.

For the compound `CO[C@H]1C[C@@H]2CC[C@@H](C)[C@@](O)(O2)C(=O)C(=O)N2CCCC[C@H]2C(=O)O[C@H]([C@H](C)C[C@@H]2CC[C@@H](O)[C@H](OC)C2)CC(=O)[C@H](C)/C=C(\C)[C@@H](O)[C@@H](OC)C(=O)[C@H](C)C[C@H](C)/C=C/C=C/C=C/1C` [SIROLIMUS], the Activity entry in data set [1] is “inhibitor [+]”. `CCCCNc1ccc(C(=O)OCCN(C)C)cc1` [TETRACAINE]: the Activity result in [2] was “inhibitor [+]”. With `C=C[C@H]1C[N@@]2CC[C@H]1C[C@H]2[C@H](O)c1ccnc2ccc(OC)cc12` [QUININE], in data set [3], the Activity result was “inhibitor [+]”. In the case of `Cc1c2oc3c(C)ccc(C(=O)N[C@@H]4C(=O)N[C@H](C(C)C)C(=O)N5CCC[C@H]5C(=O)N(C)CC(=O)N(C)[C@@H](C(C)C)C(=O)O[C@@H]4C)c3nc-2c(C(=O)N[C@@H]2C(=O)N[C@H](C(C)C)C(=O)N3CCC[C@H]3C(=O)N(C)CC(=O)N(C)[C@@H](C(C)C)C(=O)O[C@@H]2C)c(N)c1=O` [DACTINOMYCIN] (I: T[dV]P[Sar][NMeV] / II: T[dV]P[Sar][NMeV]; ester I:1-I:C, II:1-II:C; linker I:N-II:N via Actinocin(9to1)), the Activity result in data set [4] was “inhibitor [+]”. `CN(C)CCCN1c2ccccc2CCc2ccccc21` [IMIPRAMINE]: the Activity result in data set [5] is “inhibitor [+]”. `CCCCCCCCCCCC(=O)OCCOCCOCCOCCOCCOCCOCCOCCOCCOCCOCCOCCOCCOCCOCCOCCOCCOCCOCCOCCOCC(OCCOCCOCCOCCOCCOCCOCCOCCOCCOCCOCCOCCOCCOCCOCCOCCOCCOCCOCCOCCO)C1OCC(OCCOCCOCCOCCOCCOCCOCCOCCOCCOCCOCCOCCOCCOCCOCCOCCOCCOCCOCCOCCO)C1OCCOCCOCCOCCOCCOCCOCCOCCOCCOCCOCCOCCOCCOCCOCCOCCOCCOCCOCCOCCO` (stereo not given) [TWEEN 20]: in data set [6], the Activity result is “inhibitor [+]”. With `CCN(CC)CC(=O)Nc1c(C)cccc1C` [LIDOCAINE], the Activity result in data set [7] was “is not an inhibitor [-]”.

For the compound `COC(=O)C1=C(C)NC(C)=C(C(=O)OC)C1c1ccccc1[N+](=O)[O-]` [NIFEDIPINE], in [8], the Activity result is “inhibitor [+]”. For `CC(=O)[C@H]1CC[C@H]2[C@@H]3CCC4=CC(=O)CC[C@]4(C)[C@H]3CC[C@]12C` [PROGESTERONE], in data set [9], the Activity result was “inhibitor [+]”. As for `O=C(CCCN1CCC(O)(c2ccc(Cl)cc2)CC1)c1ccc(F)cc1` [HALOPERIDOL], the Activity result in data set [10] was “inhibitor [+]”.

Take `COc1cc2c(c(OC)c1OC)-c1ccc(OC)c(=O)cc1[C@@H](NC(C)=O)CC2` [COLCHICINE]: the Activity result in [11] was “is not an inhibitor [-]”. In the case of `CC(C)[C@@H]1NC(=O)[C@H](C)OC(=O)[C@@H](C(C)C)NC(=O)[C@@H](C(C)C)OC(=O)[C@H](C(C)C)NC(=O)[C@H](C)OC(=O)[C@@H](C(C)C)NC(=O)[C@@H](C(C)C)OC(=O)[C@H](C(C)C)NC(=O)[C@H](C)OC(=O)[C@@H](C(C)C)NC(=O)[C@@H](C(C)C)OC1=O` [VALINOMYCIN], in data set [12], the Activity result was “inhibitor [+]”. Regarding `COc1cc(Nc2c3ccccc3nc3ccccc23)ccc1NS(C)(=O)=O` [o-Amsacrine], the Activity entry in data set [13] was “inhibitor [+]”. IVERMECTIN: the Activity entry in data set [14] is “inhibitor [+]”. In the case of `C[C@]12C=CC(=O)C=C1CC[C@@H]1[C@@H]2C(=O)C[C@@]2(C)[C@H]1CC[C@]2(O)C(=O)CO` [PREDNISONE], the Activity entry in [15] was “inhibitor [+]”.
